Source: BindingDB's records for doi:10.1124/jpet.105.089839 (F. Hoffmann-La Roche, 2005)
Where “and” joins values, the source holds several entries; their conditions need not be identical. Identical values can stand only once.

Tests used:
[1] = biological target: Metabotropic glutamate receptor 5 (Homo sapiens, UniProt P41594)
[2] = biological target: Metabotropic glutamate receptor 5 (Rattus norvegicus, UniProt P31424)
Sequence of Metabotropic glutamate receptor 5 (Rattus norvegicus, UniProt P31424) (P31424 whole entry): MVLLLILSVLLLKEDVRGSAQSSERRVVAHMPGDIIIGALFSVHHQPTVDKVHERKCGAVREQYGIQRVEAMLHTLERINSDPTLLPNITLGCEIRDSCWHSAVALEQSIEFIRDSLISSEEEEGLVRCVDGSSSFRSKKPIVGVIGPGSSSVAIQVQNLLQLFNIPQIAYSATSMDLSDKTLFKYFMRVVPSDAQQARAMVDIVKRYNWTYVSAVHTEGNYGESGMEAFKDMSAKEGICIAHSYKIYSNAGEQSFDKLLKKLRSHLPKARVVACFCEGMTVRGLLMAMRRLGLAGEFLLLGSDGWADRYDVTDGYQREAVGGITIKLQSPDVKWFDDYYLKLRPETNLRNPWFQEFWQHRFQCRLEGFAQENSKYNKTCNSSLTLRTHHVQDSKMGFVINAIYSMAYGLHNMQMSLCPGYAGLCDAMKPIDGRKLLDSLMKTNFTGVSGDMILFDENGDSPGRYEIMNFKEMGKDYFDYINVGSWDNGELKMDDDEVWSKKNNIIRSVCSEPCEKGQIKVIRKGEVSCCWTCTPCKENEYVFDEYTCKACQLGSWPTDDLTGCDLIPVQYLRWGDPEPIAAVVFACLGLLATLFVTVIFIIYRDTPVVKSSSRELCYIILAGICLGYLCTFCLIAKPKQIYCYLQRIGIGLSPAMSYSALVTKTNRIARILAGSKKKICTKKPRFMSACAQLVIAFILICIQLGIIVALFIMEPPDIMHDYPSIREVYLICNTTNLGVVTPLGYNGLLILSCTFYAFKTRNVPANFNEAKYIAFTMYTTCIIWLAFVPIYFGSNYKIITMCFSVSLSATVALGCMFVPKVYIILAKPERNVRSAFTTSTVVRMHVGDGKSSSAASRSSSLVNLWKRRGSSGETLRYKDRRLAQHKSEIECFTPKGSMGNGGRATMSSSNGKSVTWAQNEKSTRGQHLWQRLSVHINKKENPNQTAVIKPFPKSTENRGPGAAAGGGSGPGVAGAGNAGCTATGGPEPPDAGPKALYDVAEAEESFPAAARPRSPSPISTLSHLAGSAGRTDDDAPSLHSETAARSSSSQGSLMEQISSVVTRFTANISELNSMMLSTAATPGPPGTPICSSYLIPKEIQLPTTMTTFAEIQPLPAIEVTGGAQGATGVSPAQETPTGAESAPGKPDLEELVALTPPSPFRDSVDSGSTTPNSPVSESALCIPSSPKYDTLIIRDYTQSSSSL

Sequence of Metabotropic glutamate receptor 5 (Homo sapiens, UniProt P41594) (P41594 whole entry): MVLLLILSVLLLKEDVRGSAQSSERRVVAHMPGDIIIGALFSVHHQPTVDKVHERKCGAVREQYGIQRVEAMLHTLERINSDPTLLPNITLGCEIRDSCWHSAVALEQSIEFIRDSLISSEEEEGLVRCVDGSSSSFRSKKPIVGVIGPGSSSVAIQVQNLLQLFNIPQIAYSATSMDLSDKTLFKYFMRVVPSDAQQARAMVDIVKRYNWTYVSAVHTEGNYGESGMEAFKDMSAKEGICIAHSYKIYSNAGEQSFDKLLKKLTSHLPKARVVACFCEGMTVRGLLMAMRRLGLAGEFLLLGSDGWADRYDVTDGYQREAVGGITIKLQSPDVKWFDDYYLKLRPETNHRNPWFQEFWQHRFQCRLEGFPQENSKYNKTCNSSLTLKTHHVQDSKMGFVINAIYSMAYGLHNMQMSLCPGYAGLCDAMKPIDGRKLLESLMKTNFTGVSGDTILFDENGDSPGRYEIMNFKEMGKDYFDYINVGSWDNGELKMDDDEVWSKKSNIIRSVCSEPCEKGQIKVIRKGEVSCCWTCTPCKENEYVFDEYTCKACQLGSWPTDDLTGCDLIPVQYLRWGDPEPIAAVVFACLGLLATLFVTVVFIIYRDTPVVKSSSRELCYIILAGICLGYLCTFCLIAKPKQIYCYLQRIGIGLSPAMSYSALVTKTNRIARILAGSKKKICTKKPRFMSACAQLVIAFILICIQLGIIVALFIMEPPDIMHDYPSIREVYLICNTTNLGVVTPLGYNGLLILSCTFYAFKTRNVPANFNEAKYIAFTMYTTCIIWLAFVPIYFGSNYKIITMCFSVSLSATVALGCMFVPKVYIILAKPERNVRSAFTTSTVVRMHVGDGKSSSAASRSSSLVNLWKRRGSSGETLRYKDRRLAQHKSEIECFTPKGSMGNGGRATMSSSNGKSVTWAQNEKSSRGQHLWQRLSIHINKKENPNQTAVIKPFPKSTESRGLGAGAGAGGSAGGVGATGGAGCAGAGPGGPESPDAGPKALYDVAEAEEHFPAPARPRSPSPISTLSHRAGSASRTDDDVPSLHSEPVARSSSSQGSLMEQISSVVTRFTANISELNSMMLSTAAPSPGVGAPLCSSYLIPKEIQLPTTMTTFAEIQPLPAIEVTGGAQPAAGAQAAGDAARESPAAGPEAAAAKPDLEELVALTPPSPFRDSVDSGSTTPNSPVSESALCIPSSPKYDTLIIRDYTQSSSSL

| Compound | Ki [1] | Ki [2] |
| --- | --- | --- |
| N[C@@H](Cn1oc(=O)[nH]c1=O)C(=O)O [NSC_40539] | > 10000 nM | > 10000 nM |
| Cc1cccc(C=Cc2ccccc2)n1 [CAS_5311432] | 334 nM and 219 nM and 800 nM | 423 nM and 243 nM |
| Cn1cc(O)nc1NC(=O)Nc1cccc(Cl)c1 [NSC_216215] | 40.8 nM and 53 nM and 58 nM | 56.3 nM and 50.8 nM |
| Cc1ccc(O)c(N=Nc2ccccc2)n1 [CAS_5218788] | 357 nM and 328 nM and 1100 nM | 486 nM and 346 nM |
